PubChem BioAssay AID1963982 (Molecular Pharmacology Branch, DTP, NCI, 2024)
Where “and” joins values, the source holds several entries; their conditions need not be identical. Identical values can stand only once.

System: 313798-341-R-J2-PDC spheroids, viability
Test: Anticancer human tumor 313798-341-R-J2-PDC patient-derived cervical squamous cell carcinoma cell line growth inhibition [PI3K]
Details: spheroids with HUVEC and MSC; for viability, T/C: stronger effect = lower value
Summary of the method: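 Stroma-containing spheroids: tumor line, pooled-donor HUVEC, hMSC. Treatments: targeted agents with PI3K inhibitors. Dosing: clinically relevant, half-log spacing, 10 microM ceiling without known Cmax. Read-out: cell viability.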

[1] = curve of first compound, second compound 0.00316 µM
[2] = curve of first compound, second compound 0.01 µM
[3] = curve of first compound, second compound 0.0316 µM
[4] = curve of first compound, second compound 0.1 µM
[5] = curve of first compound, second compound 0.316 µM
[6] = curve of first compound, second compound 1 µM
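Also: spheroids exposed to compounds for seven days.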
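For viability, T/C in this document: 100% = DMSO vehicle control viability.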

CC(C)n1nc(-c2ccc3oc(N)nc3c2)c2c(N)ncnc21 + CC(Nc1ccc2c(c1)OCCn1cc(N3C(=O)OCC3C(F)F)nc1-2)C(N)=O
IC50 [1]: 70.2 nM | IC50 [2]: 66.3 nM | IC50 [3]: 48.8 nM | IC50 [4]: 28.2 nM | IC50 [5]: 14.2 nM | IC50 [6]: 1.85 nM | viability, T/C (second compound 0.00316 µM, first compound 0.000316 µM): 90.9% | viability, T/C (second compound 0.00316 µM, first compound 0.001 µM): 99% | viability, T/C (second compound 0.00316 µM, first compound 0.00316 µM): 119% | viability, T/C (second compound 0.00316 µM, first compound 0.01 µM): 92.8% | viability, T/C (second compound 0.00316 µM, first compound 0.0316 µM): 78% | viability, T/C (second compound 0.00316 µM, first compound 0.1 µM): 37.8% | viability, T/C (second compound 0.01 µM, first compound 0.000316 µM): 83.8% | viability, T/C (second compound 0.01 µM, first compound 0.001 µM): 90.4% | viability, T/C (second compound 0.01 µM, first compound 0.00316 µM): 100% | viability, T/C (second compound 0.01 µM, first compound 0.01 µM): 103% | viability, T/C (second compound 0.01 µM, first compound 0.0316 µM): 73.2% | viability, T/C (second compound 0.01 µM, first compound 0.1 µM): 37.2% | viability, T/C (second compound 0.0316 µM, first compound 0.000316 µM): 94.6% | viability, T/C (second compound 0.0316 µM, first compound 0.001 µM): 92.3% | viability, T/C (second compound 0.0316 µM, first compound 0.00316 µM): 92.1% | viability, T/C (second compound 0.0316 µM, first compound 0.01 µM): 92.6% | viability, T/C (second compound 0.0316 µM, first compound 0.0316 µM): 60.6% | viability, T/C (second compound 0.0316 µM, first compound 0.1 µM): 32.4% | viability, T/C (second compound 0.1 µM, first compound 0.000316 µM): 95.6% | viability, T/C (second compound 0.1 µM, first compound 0.001 µM): 97.4% | viability, T/C (second compound 0.1 µM, first compound 0.00316 µM): 92.2% | viability, T/C (second compound 0.1 µM, first compound 0.01 µM): 69.3% | viability, T/C (second compound 0.1 µM, first compound 0.0316 µM): 49.6% | viability, T/C (second compound 0.1 µM, first compound 0.1 µM): 33.2% | viability, T/C (second compound 0.316 µM, first compound 0.000316 µM): 83.4% | viability, T/C (second compound 0.316 µM, first compound 0.001 µM): 70.9% | viability, T/C (second compound 0.316 µM, first compound 0.00316 µM): 64.8% | viability, T/C (second compound 0.316 µM, first compound 0.01 µM): 54.7% | viability, T/C (second compound 0.316 µM, first compound 0.0316 µM): 43.5% | viability, T/C (second compound 0.316 µM, first compound 0.1 µM): 25.1% | viability, T/C (second compound 1 µM, first compound 0.000316 µM): 55.3% | viability, T/C (second compound 1 µM, first compound 0.001 µM): 53.1% | viability, T/C (second compound 1 µM, first compound 0.00316 µM): 45% | viability, T/C (second compound 1 µM, first compound 0.01 µM): 42.1% | viability, T/C (second compound 1 µM, first compound 0.0316 µM): 32.9% | viability, T/C (second compound 1 µM, first compound 0.1 µM): 14.3%

Cn1ncnc1[C@H]1c2n[nH]c(=O)c3cc(F)cc(c23)N[C@@H]1c1ccc(F)cc1
viability, T/C (compound 0.001 µM): 94.9% [middle of 4 runs] | viability, T/C (compound 0.00316 µM): 94.7% [middle of 4 runs] | viability, T/C (compound 0.01 µM): 104% (2×) and 88.8% and 114% | viability, T/C (compound 0.0316 µM): 95.9% [middle of 4 runs] | viability, T/C (compound 0.1 µM): 89% [middle of 4 runs] | IC50 (curve of compound): > 100 nM

Cn1cnc2c(F)c(Nc3ccc(Br)cc3Cl)c(C(=O)NOCCO)cc21 + COc1c(OCCCN2CCOCC2)ccc2c3n(c(=NC(=O)c4cnc(N)nc4)nc12)CCN3
IC50 [1]: > 3000 nM | IC50 [2]: > 3000 nM | IC50 [3]: 2960 nM | IC50 [4]: < 9.49 nM | IC50 [5]: < 9.49 nM | IC50 [6]: < 9.49 nM | viability, T/C (second compound 0.00316 µM, first compound 0.00949 µM): 88% | viability, T/C (second compound 0.00316 µM, first compound 0.03 µM): 93.1% | viability, T/C (second compound 0.00316 µM, first compound 0.0949 µM): 95.2% | viability, T/C (second compound 0.00316 µM, first compound 0.3 µM): 87.6% | viability, T/C (second compound 0.00316 µM, first compound 0.949 µM): 97.3% | viability, T/C (second compound 0.00316 µM, first compound 3 µM): 75.7% | viability, T/C (second compound 0.01 µM, first compound 0.00949 µM): 93.1% | viability, T/C (second compound 0.01 µM, first compound 0.03 µM): 100% | viability, T/C (second compound 0.01 µM, first compound 0.0949 µM): 97.3% | viability, T/C (second compound 0.01 µM, first compound 0.3 µM): 101% | viability, T/C (second compound 0.01 µM, first compound 0.949 µM): 82% | viability, T/C (second compound 0.01 µM, first compound 3 µM): 70.3% | viability, T/C (second compound 0.0316 µM, first compound 0.00949 µM): 84.8% | viability, T/C (second compound 0.0316 µM, first compound 0.03 µM): 75.5% | viability, T/C (second compound 0.0316 µM, first compound 0.0949 µM): 75% | viability, T/C (second compound 0.0316 µM, first compound 0.3 µM): 62.5% | viability, T/C (second compound 0.0316 µM, first compound 0.949 µM): 73.4% | viability, T/C (second compound 0.0316 µM, first compound 3 µM): 46.8% | viability, T/C (second compound 0.1 µM, first compound 0.00949 µM): 45.2% | viability, T/C (second compound 0.1 µM, first compound 0.03 µM): 35.3% | viability, T/C (second compound 0.1 µM, first compound 0.0949 µM): 32.3% | viability, T/C (second compound 0.1 µM, first compound 0.3 µM): 31.6% | viability, T/C (second compound 0.1 µM, first compound 0.949 µM): 26.4% | viability, T/C (second compound 0.1 µM, first compound 3 µM): 17.1% | viability, T/C (second compound 0.316 µM, first compound 0.00949 µM): 12.5% | viability, T/C (second compound 0.316 µM, first compound 0.03 µM): 9.53% | viability, T/C (second compound 0.316 µM, first compound 0.0949 µM): 5.72% | viability, T/C (second compound 0.316 µM, first compound 0.3 µM): 4.75% | viability, T/C (second compound 0.316 µM, first compound 0.949 µM): 3.32% | viability, T/C (second compound 0.316 µM, first compound 3 µM): 2.54% | viability, T/C (second compound 1 µM, first compound 0.00949 µM): 10.1% | viability, T/C (second compound 1 µM, first compound 0.03 µM): 5.21% | viability, T/C (second compound 1 µM, first compound 0.0949 µM): 3.78% | viability, T/C (second compound 1 µM, first compound 0.3 µM): 3.94% | viability, T/C (second compound 1 µM, first compound 0.949 µM): 2.23% | viability, T/C (second compound 1 µM, first compound 3 µM): 1%

Cn1nccc1Nc1nccc(-c2ccn(C(CO)c3ccc(Cl)c(F)c3)c(=O)c2)n1 (configuration not stated)
viability, T/C (compound 0.0316 µM): 98.7% and 101% (2×) and 96.5% | viability, T/C (compound 0.1 µM): 95.3% [middle of 4 runs] | viability, T/C (compound 0.316 µM): 98.6% [middle of 4 runs] | viability, T/C (compound 1 µM): 100% [middle of 4 runs] | viability, T/C (compound 3.16 µM): 116% [middle of 4 runs] | viability, T/C (compound 10 µM): 96.9% and 104% (2×) and 105% | IC50 (curve of compound): > 10000 nM
